Reference: paper PMC10895678 (Journal of Medicinal Chemistry, 2024)
“And” between values parts separate entries of the source, which are not always exact repeats. Equal values may be shown once. Read-outs that look alike come from different tables or passages of the source.

Assay: Mouse PK, combined (cassette) dosing of BGAz-001–005
Format: in vivo, KM mice
Set-up: AUMC(0-t) / VRT(0-t) / λz: unit not given here
Conditions: for AUC(0-t): read-out: AUC(0-t); for MRT last: read-out: MRT(0-t); for MRT inf: read-out: MRT(0-∞); for Vd/F: read-out: Vz/F
Excerpt: Methods for combined single dosing (BGAz001–005) and dosing of single compounds multiple times (BGAz004 and BGAz005) are described in detail in the Supporting Information (PK Data).
Report on PK Results of Combined Dosing with BGAz-001–005
1 Materials and instrument combined dosing
An MS2 Turnover type oscillator was purchased from IKA Work’s Guangzhou (China), and a 5415R ChromatographicanalyseswereconductedusinganAgilent1290InfinityIIhighperformanceliquidchromatography andAgilentTechnologies6470TripleQuadLC/MS.Propranolol(≥90%inpurity,internalstandard,IS)waspurchased fromtheSigmaChemicalCo.(China).Formicacid(HPLCgrade)andmethanol(HPLCgrade)werepurchasedfrom DIKMACo.(China).Allchemicalsandsolventswereanalyticalgrade.WaterwaspurifiedusingaMillipore(AK,USA) laboratoryultra-purewatersystem(0.2μmfilter).
KMmice,weighing25–35g(BeijingVitalRiverLaboratoryAnimalTechnologyCo.,Ltd.,China)wereutilisedforthe studies.The protocols were approved by the Animal Care and Use Committee, GIBH. Animals were maintained on standard animal chow and waterad libitum, in a climate-controlled room (23±1 °C 30–70% relative humidity, a minimumof tenexchangesof roomairperhouranda12hlight/darkcycle)foroneweekpriortoexperiments.
3 Pharmacokinetic studies
Compounds BGAz-001 ，BGAz-002 ，BGAz-003 ，BGAz-004 and BGAz-005 were dissolved mixed in a solution containing DMSO (2%),ethanol (4%), Cremophor EL (4%) and ddH2O (90%); Pharmacokinetic propertiesof KM (male) were determined following IV, PO and IP administration. Animals were randomly distributed into three experimentalgroups(n=4).ThePOgroupwasgivenmixedsolutionwith5mg/kgbygastricgavage.TheIVgroup was dosed with mixed solution 1mg/kg byinjection into the tail vein. The IP group was dosed with mixed solution 1mg/kg by intraperitoneal injection. After single administration, whole blood samples (100 μL) were obtained from the orbital venousplexus atthe followingtime pointsafter dosing:5, 15,30 minand 1,3, 5,8, 24hour (PO and IP groups) and at the following time points after dosing 2, 10, 30min and 1, 3, 5, 8,24 hour (IV group). Wholeblood samples were collected in heparinised tubes. The plasma fraction was immediately separated by centrifugation. The micewerehumanelyeuthanasiabycarbondioxide24hoursafterexperimentwithoutpain.
4 Plasma sample and brain sample analysis
4.1 Standard curve sample preparation
ThecompoundsweredissolvedinDMSO(2mg/mL)anddilutedwithtoseriesconcentration(methanol:H 2O,1:1,10 μL) and blank plasma (50 μL) were added to 1.5 mL tubes and vortexed for 3 min, then acetonitrile-containing internalstandard(150μL)wasaddedandvortexedforafurther5min,andsubsequentlyspuninacentrifugeat13000 […]
4.2 Plasma and preparation
Plasmasampleswerepreparedusingaproteinprecipitationmethod.Solution(10μL,methanolH 2O,1:1)andplasma samples(50μL)wereaddedto1.5mLtubesandvortexfor3min,thenacetonitrile-containinginternalstandard(150 μL)wasaddedandvortexfor5min,andsubsequentlyspuninacentrifugeat13000× gfor40minat4°C.
Aftercentrifugation,supernatant(100μL)wastransferto96wellplatesandanalysedbyLC-MS/MSusinganAgilent 1290InfinityIIHPLCandanAgilentTechnologies6470TripleQuadLC/MS.

[1] = IP 1 mg/kg, cassette, mean of animals
[2] = IV 1 mg/kg, cassette, mean of animals
[3] = PO 5 mg/kg, cassette, mean of animals
[4] = male, KM, mouse, plasma, IP 1 mg/kg, cassette
[5] = male, KM, mouse, plasma, IP 1 mg/kg, cassette, mean of animals
[6] = male, KM, mouse, plasma, IV 1 mg/kg, cassette
[7] = male, KM, mouse, plasma, IV 1 mg/kg, cassette, mean of animals
[8] = male, KM, mouse, plasma, PO 5 mg/kg, cassette
[9] = male, KM, mouse, plasma, PO 5 mg/kg, cassette, mean of animals

Brc1cc(Br)cc(C2CC(CN3CCCC3)N2Cc2ccccc2Br)c1 (stereo not drawn) [BGAz-004]
AUMC(0-t) [1]: 3591.68 **μg | AUMC(0-∞) [1]: 7580.816 **μg | CLz/F [1]: 1.737 L/kg | C_last [1]: 7.173 µg | R_AUC(t/∞) [1]: 82.475% | VRT(0-t) [1]: 44.576 ^2 | VRT(0-∞) [1]: 210.175 ^2 | λz [1]: 0.071 1/ | AUC(0-∞) (IP 1 mg/kg, cassette, summary table): 581.359 µg·h | AUMC(0-t) [2]: 5267.479 **μg | AUMC(0-∞) [2]: 9388.553 **μg | CLz/F [2]: 1.659 L/kg | C_last [2]: 6.542 µg | R_AUC(t/∞) [2]: 90.625% | VRT(0-t) [2]: 43.967 ^2 | VRT(0-∞) [2]: 134.645 ^2 | Vz/F [2]: 17.622 L/kg | λz [2]: 0.091 1/ | AUC(0-∞) (IV 1 mg/kg, cassette, summary table): 789.43 µg·h | BA (PO 5 mg/kg vs IV 1 mg/kg, cassette): 35.64% | AUMC(0-t) [3]: 7719.114 **μg | AUMC(0-∞) [3]: 23536.035 **μg | CLz/F [3]: 3.927 L/kg | C_last [3]: 32.311 µg | R_AUC(t/∞) [3]: 62.325% | VRT(0-t) [3]: 36.246 ^2 | VRT(0-∞) [3]: 301.909 ^2 | λz [3]: 0.069 1/ | AUC(0-∞) (PO 5 mg/kg, cassette, summary table): 1406.796 µg·h | AUC(0-inf) (male, KM, mouse, plasma, ip, 1 mg/kg, IP 1 mg/kg, cassette, mean of animals, read-out: AUC(0-∞)): 0.581 µg·h/mL | Cmax (male, KM, mouse, plasma, ip, 1 mg/kg, IP 1 mg/kg, cassette, mean of animals, read-out: Cmax): 0.061 µg/mL | Tmax (male, KM, mouse, plasma, ip, 1 mg/kg, IP 1 mg/kg, cassette, mean of animals, read-out: Tmax): 0.271 h | Cmax (male, KM, mouse, plasma, ip, 1 mg/kg, IP 1 mg/kg, cassette, summary table, read-out: Cmax): 0.061 µg/mL | half-life (male, KM, mouse, plasma, ip, 1 mg/kg, IP 1 mg/kg, cassette, summary table, read-out: T1/2 (converted)): 9.82 h | Tmax (male, KM, mouse, plasma, ip, 1 mg/kg, IP 1 mg/kg, cassette, summary table, read-out: Tmax): 0.271 h | AUC(0-inf) (male, KM, mouse, plasma, iv, 1 mg/kg, IV 1 mg/kg, cassette, mean of animals, read-out: AUC(0-∞)): 0.789 µg·h/mL | Cmax (male, KM, mouse, plasma, iv, 1 mg/kg, IV 1 mg/kg, cassette, mean of animals, read-out: Cmax): 0.278 µg/mL | Tmax (male, KM, mouse, plasma, iv, 1 mg/kg, IV 1 mg/kg, cassette, mean of animals, read-out: Tmax): 0.033 h | Cmax (male, KM, mouse, plasma, iv, 1 mg/kg, IV 1 mg/kg, cassette, summary table, read-out: Cmax): 0.278 µg/mL | half-life (male, KM, mouse, plasma, iv, 1 mg/kg, IV 1 mg/kg, cassette, summary table, read-out: T1/2 (converted)): 8.29 h | Tmax (male, KM, mouse, plasma, iv, 1 mg/kg, IV 1 mg/kg, cassette, summary table, read-out: Tmax): 0.033 h | AUC(0-inf) (male, KM, mouse, plasma, po, 5 mg/kg, 5 mg/kg PO, cassette dosing, read-out: AUC0-inf): 1.41 µg·h/mL | Cmax (male, KM, mouse, plasma, po, 5 mg/kg, 5 mg/kg PO, cassette dosing, read-out: Cmax (Mouse, P.O.)): 0.0876 µg/mL | half-life (male, KM, mouse, plasma, po, 5 mg/kg, 5 mg/kg PO, cassette dosing, read-out: T1/2 (Mouse, P.O.) (converted)): 11.4 h | Tmax (male, KM, mouse, plasma, po, 5 mg/kg, 5 mg/kg PO, cassette dosing, read-out: Tmax (Mouse, P.O.)): 0.87 h | AUC(0-inf) (male, KM, mouse, plasma, po, 5 mg/kg, PO 5 mg/kg, cassette, mean of animals, read-out: AUC(0-∞)): 1.41 µg·h/mL | Cmax (male, KM, mouse, plasma, po, 5 mg/kg, PO 5 mg/kg, cassette, mean of animals, read-out: Cmax): 0.0876 µg/mL | Tmax (male, KM, mouse, plasma, po, 5 mg/kg, PO 5 mg/kg, cassette, mean of animals, read-out: Tmax): 0.875 h | Cmax (male, KM, mouse, plasma, po, 5 mg/kg, PO 5 mg/kg, cassette, summary table, read-out: Cmax): 0.0876 µg/mL | half-life (male, KM, mouse, plasma, po, 5 mg/kg, PO 5 mg/kg, cassette, summary table, read-out: T1/2 (converted)): 11.4 h | Tmax (male, KM, mouse, plasma, po, 5 mg/kg, PO 5 mg/kg, cassette, summary table, read-out: Tmax): 0.875 h | concentration at 0.083 h [4]: 55.3 ng/mL and 100 nM | concentration at 0.25 h [4]: 110 nM and 60.1 ng/mL | concentration at 0.5 h [4]: 90 nM and 50.3 ng/mL | concentration at 1 h [4]: 70 nM and 39.4 ng/mL | concentration at 3 h [4]: 60 nM and 31 ng/mL | concentration at 5 h [4]: 50 nM and 24.4 ng/mL | concentration at 8 h [4]: 40 nM and 21.8 ng/mL | concentration at 24 h [4]: 10 nM and 7.15 ng/mL | AUC(0-t) [5]: 0.478 µg·h/mL | MRT last [5]: 7.49 h | MRT inf [5]: 12.9 h | Vd/F [5]: 24.4 L/kg | concentration at 0.033 h (male, KM, mouse, plasma, IV 1 mg/kg, cassette, 0.033 h): 278 ng/mL and 520 nM | concentration at 0.167 h (male, KM, mouse, plasma, IV 1 mg/kg, cassette, 0.167 h): 270 nM and 148 ng/mL | concentration at 0.5 h [6]: 160 nM and 84.6 ng/mL | concentration at 1 h [6]: 170 nM and 89.6 ng/mL | concentration at 3 h [6]: 80 nM and 40.5 ng/mL | concentration at 5 h [6]: 50 nM and 28.3 ng/mL | concentration at 8 h [6]: 40 nM and 21.6 ng/mL | concentration at 24 h [6]: 30 nM and 15.1 ng/mL | C0 [7]: 0.327 µg/mL | AUC(0-t) [7]: 0.688 µg·h/mL | MRT last [7]: 6.4 h | MRT inf [7]: 9.25 h | concentration at 0.083 h [8]: 17.3 ng/mL and 30 nM | concentration at 0.25 h [8]: 80 nM and 42.6 ng/mL | concentration at 0.5 h [8]: 120 nM and 65.1 ng/mL | concentration at 1 h [8]: 160 nM and 84.4 ng/mL | concentration at 3 h [8]: 130 nM and 68.4 ng/mL | concentration at 5 h [8]: 120 nM and 63.3 ng/mL | concentration at 8 h [8]: 110 nM and 60.5 ng/mL | concentration at 24 h [8]: 40 nM and 22.2 ng/mL | AUC(0-t) [9]: 0.945 µg·h/mL | MRT last [9]: 6.82 h | MRT inf [9]: 15.7 h | Vd/F [9]: 58.1 L/kg
